Values quoted from earlier work as cited in patent US11793177B2, “Animal model of Angelman Syndrome” (UNIVERSITY OF SOUTH FLORIDA, priority 2016, dated 2023).

Test system: GR
Conditions: treatment in adulthood; rodent

With `CC(/C=C/C(=O)NO)=C\[C@@H](C)C(=O)c1ccc(N(C)C)cc1` [TSA] as the compound, how does the “GR levels in the hippocampus” value read?
The value was “increased”.

What about the “repressive histone and methylation marks in the hippocampus” value of the same compound?
Its value is “reversed”.
